Reference: patent EP0938474B1, “CYCLOPROPYLINDOLE COMPOUNDS AND THEIR USE AS PRODRUGS” (AUCKLAND UNISERVICES LIMITED, priority 1996, dated 1998)

Columns and labels:
[1] = tested on: human colon NR-(wild-type) line WIDR; assay: Cytotoxicity in untransfected control cells (NR-), nitroreductase activation test; format: cell-based; conditions: IC50, unit inferred, read-out: Human colon lines NR-
Text: (§1) Compounds of the invention were further tested against human cell lines (NR+ in Table 3) transfected with a gene encoding a bacterial nitroreductase (NR) enzyme to test for activation of compounds of the invention with NR. Untransfected control cells (NR- in Table 3) were used as controls. The cells used were the human colon NR-(wild-type) line WIDR and its transfected NR+ counterpart WC14.10; and the human ovarian NR- (wild-type) line SKOV3 together with its NR+ (transfected) counterpart SC3.2. The results are shown in Table 3, which also indicates the ratios of IC50s. These are intra-experiment values, and may differ slightly from those calculated from the given NR- and NR+ values.

[2] = tested on: human ovarian NR- (wild-type) line SKOV3; assay: as above; format: cell-based; conditions: SK-OV-3, IC50, unit inferred, read-out: Human ovarian lines NR-
Text: as §1

SC3.2 = assay: Cytotoxicity in cells transfected with bacterial nitroreductase (NR+); format: cell-based; conditions: Homo sapiens, SK-OV-3; SC3.2 (NR+ transfected counterpart of SKOV3); IC50, unit inferred; read-out: Human ovarian lines NR+
Text: as §1

WC14.10 = assay: as above; format: cell-based; conditions: Homo sapiens; WC14.10 (NR+ transfected counterpart of WIDR); IC50, unit inferred; read-out: Human colon lines NR+
Text: as §1

[3] = background statement, test system not given; cited from earlier work

SMILES | IC50 [1] [nM] | IC50 [2] [nM] | IC50 (SC3.2) [nM] | IC50 (WC14.10) [nM] | IC50's [3]
COc1cc2cc(C(=O)N3CC(CCl)c4c3cc(NC(=O)OCc3ccc([N+](=O)[O-])cc3)c3ccccc43)[nH]c2c(OC)c1OC (stereo not shown) [15r, 1-(chloromethyl)-5-[(4-nitrobenzyloxycarbonyl)amino]-3-[(5,6,7-trimethoxyindol-2-yl)carbonyl]-1,2 - dihydro-3H-benz[e] indole] | 390 | 62 | 5.4 | 12 | –
COC(=O)c1cc2c3c(cc(NC(=O)OCc4ccc([N+](=O)[O-])cc4)c2[nH]1)N(C(=O)c1cc2cc(OC)c(OC)c(OC)c2[nH]1)CC3CCl (stereo not shown) [32d, methyl 1-(chloromethyl) -5-[(4-nitrobenzyloxycarbonyl) -amino] -3-[(5,6,7-trimethoxyindol-2-yl)carbonyl]-1,2-dihydro-3H-pyrrolo[3,2-e]indole-7-carboxylate] | 490 | 1100 | 270 | 260 | –
COc1c(O)c2c(c3cc(C(=O)N4CCc5c4c(O)c(OC)c4[nH]c(C(=O)N6CC7CC78C6=CC(=O)c6[nH]cc(C)c68)cc54)[nH]c13)CCN2C(N)=O (stereo not shown) [CC-1065] | – | – | – | – | low pM range
COC(=O)c1cc2c3c(cc([N+](=O)[O-])c2[nH]1)N(C(=O)c1cc2cc(OC)c(OC)c(OC)c2[nH]1)CC3CCl (stereo not shown) [compound 31, methyl 1-(chloromethyl)-5-nitro-3-[(5,6,7-trimethoxyindol-2-yl)carbonyl]-1,2-dihydro-3H-pyrrolo[3,2-e]indole-7-carboxylate] | 400 | 60 | 5 | 10 | –
